According to the supplement of paper PMC10307832:

Legend:
Assay in all cases: relative viability (nuclei count vs DMSO), 5 days (fraction); higher = more cells survive
[1] = compound: C1CNCCC1C2=CC(=NN2)C3=CC=NC=C3 + CCNC(=O)c1noc(-c2cc(C(C)C)c(O)cc2O)c1-c1ccc(CN2CCOCC2)cc1 [Luminespib] (partner 0.01 µM)
How it was run: (§1)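 After 5 days of treatment, lung cancer cells in 1536-well plates were fixed and stained in a single step (final 0.05% Triton X-100, 1% formaldehyde, 1 ug/ml Hoechst) and their nuclei counted on 4× images. Treatment had been applied by pin tool the day after seeding as one drug alone or as a fixed anchor-drug dose with five library-drug doses (not always all listed) in √10 steps. Relative viability is the nuclei count of treated wells divided by that of vehicle wells, and values are medians of duplicate plates.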

[2] = compound: C1CNCCC1C2=CC(=NN2)C3=CC=NC=C3 + CS(=O)(=O)CCNCc1ccc(-c2ccc3ncnc(Nc4ccc(OCc5cccc(F)c5)c(Cl)c4)c3c2)o1 [Lapatinib] (partner 2 µM)
How it was run: as §1

[3] = compound: C1CNCCC1C2=CC(=NN2)C3=CC=NC=C3 + NC(=O)Nc1cc(-c2cccc(F)c2)sc1C(=O)N[C@H]1CCCNC1 [AZD7762] (partner 0.2 µM)
How it was run: as §1

Tanzisertib + Pictilisib = compound: O[C@H]1CC[C@H](Nc2ncc3nc(Nc4c(F)cc(F)cc4F)n([C@H]4CCOC4)c3n2)CC1 [Tanzisertib] + CS(=O)(=O)N1CCN(Cc2cc3nc(-c4cccc5[nH]ncc45)nc(N4CCOCC4)c3s2)CC1 [Pictilisib] (partner 1 µM)
How it was run: as §1

Cell Line	relative viability ([1]; first compound 0.08 µM)	relative viability ([1]; first compound 0.8 µM)	relative viability ([1]; first compound 2.53 µM)	relative viability ([1]; first compound 8 µM)	relative viability ([2]; first compound 0.08 µM)	relative viability ([2]; first compound 0.8 µM)	relative viability ([2]; first compound 2.53 µM)	relative viability ([2]; first compound 8 µM)	relative viability ([3]; first compound 0.08 µM)	relative viability ([3]; first compound 0.8 µM)	relative viability ([3]; first compound 2.53 µM)	relative viability ([3]; first compound 8 µM)	relative viability (Tanzisertib + Pictilisib; first compound 0.08 µM)	relative viability (Tanzisertib + Pictilisib; first compound 0.253 µM)	relative viability (Tanzisertib + Pictilisib; first compound 0.8 µM)	relative viability (Tanzisertib + Pictilisib; first compound 2.53 µM)	relative viability (Tanzisertib + Pictilisib; first compound 8 µM)
EMC-BAC-2	0.882	1.16	1.28	1.14	0.682	0.927	0.897	0.87	0.892	1.14	1.16	1.12	0.606	0.534	0.57	0.528	0.419
CAL-12T	0.606	0.734	0.457	0.819	0.714	0.613	0.811	0.666	0.701	0.669	0.601	0.66	0.416	0.468	0.438	0.485	0.353
NCI-H650	0.65	0.705	0.958	0.744	0.966	0.773	1.11	0.951	0.853	1.07	1.09	0.949	0.843	0.825	0.858	0.957	0.963
NCI-H1355	0.64	0.818	0.696	0.766	0.971	0.948	1	0.935	0.682	0.801	0.822	0.796	0.455	0.417	0.46	0.461	0.306
